Assay results reported in ChEMBL document CHEMBL6103581, “Identification of Thieno[3,2-d]pyrimidine derivatives as potent and selective Janus Kinase 1 inhibitors” (Eur J Med Chem, 2025).
pIC50: −log10 of the molar value. Activity calls are given as the source filed them. The rule behind the calls is not given here.

Experiments:
NCI-H1975 [1] = experiment: Upregulation of STAT3 phosphorylation level in human NCI-H1975 cells; format: functional, cell-based
NCI-H2087 [2] = experiment: Upregulation of STAT3 phosphorylation level in human NCI-H2087 cells; format: functional, cell-based
NCI-H2087 [3] = experiment: Induction of cell cycle arrest in human NCI-H2087 cells assessed as accumulation of cells at G2/M phase at 1 to 10 uM incubated for 24 hrs by propidium iodide/RNase staining based analysis; format: functional; conditions: dose 1-10 µM
NCI-H1975 [4] = experiment: Inhibition of colony formation in human NCI-H1975 cells at 10 uM incubated for 14 days by crystal violet staining based 2D colony formation assay relative to control; format: functional; conditions: NCI-H1975, 336 h, time 14 day
[5] = molecular target: Receptor-type tyrosine-protein kinase FLT3 (Homo sapiens) (UniProt P36888); experiment: Inhibition of human FLT3 at 0.1 uM preincubated for 20 min followed by 33P-ATP addition measured after 2 hrs by P81 filter-binding method relative to control; conditions: time 140.0 min
Chain of Receptor-type tyrosine-protein kinase FLT3 (Homo sapiens) (P36888 whole entry): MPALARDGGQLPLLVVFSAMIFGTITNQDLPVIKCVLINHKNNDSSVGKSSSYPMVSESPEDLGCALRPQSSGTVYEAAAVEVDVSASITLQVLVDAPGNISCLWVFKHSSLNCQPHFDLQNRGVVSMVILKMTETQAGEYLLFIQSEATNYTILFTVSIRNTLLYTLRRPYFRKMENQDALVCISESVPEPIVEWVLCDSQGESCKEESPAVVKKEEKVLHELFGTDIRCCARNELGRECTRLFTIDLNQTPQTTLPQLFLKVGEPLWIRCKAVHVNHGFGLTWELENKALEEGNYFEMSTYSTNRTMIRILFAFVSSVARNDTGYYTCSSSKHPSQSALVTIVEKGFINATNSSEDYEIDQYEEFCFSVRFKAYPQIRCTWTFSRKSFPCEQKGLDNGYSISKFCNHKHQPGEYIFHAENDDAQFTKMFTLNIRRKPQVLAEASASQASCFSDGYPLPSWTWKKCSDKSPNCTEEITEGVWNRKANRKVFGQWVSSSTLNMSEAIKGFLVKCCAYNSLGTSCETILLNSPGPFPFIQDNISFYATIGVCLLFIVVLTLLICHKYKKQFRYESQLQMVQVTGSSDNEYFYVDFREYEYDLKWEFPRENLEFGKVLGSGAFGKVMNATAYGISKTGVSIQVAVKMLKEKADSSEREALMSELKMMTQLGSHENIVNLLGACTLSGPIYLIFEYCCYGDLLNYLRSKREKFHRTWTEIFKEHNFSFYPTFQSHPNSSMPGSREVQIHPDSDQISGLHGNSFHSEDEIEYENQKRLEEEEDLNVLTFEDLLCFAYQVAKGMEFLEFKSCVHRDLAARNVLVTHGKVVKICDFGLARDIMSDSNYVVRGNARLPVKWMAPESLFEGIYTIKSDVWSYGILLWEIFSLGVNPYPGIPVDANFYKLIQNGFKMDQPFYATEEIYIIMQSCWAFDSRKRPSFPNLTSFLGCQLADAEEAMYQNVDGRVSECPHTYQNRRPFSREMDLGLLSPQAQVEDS

NCI-H2087 [6] = experiment: Antiproliferative activity against human NCI-H2087 cells assessed as cell growth inhibition incubated for 72 hrs by Cell-TiterGlo assay; format: functional
[7] = molecular target: T1, Tyrosine-protein kinase JAK3 (Homo sapiens, UniProt P52333); experiment: Inhibition of N-terminal GST-tagged human recombinant JAK3 (781 to end residues) extracted from baculovirus infected in Sf9 cells using Poly(4:1 Glu, Tyr) as substrate preincubated for 15 min followed by substrate addition and measured after 1 hr by ADP-Glo kinase assay
T1 sequence (P52333 whole entry): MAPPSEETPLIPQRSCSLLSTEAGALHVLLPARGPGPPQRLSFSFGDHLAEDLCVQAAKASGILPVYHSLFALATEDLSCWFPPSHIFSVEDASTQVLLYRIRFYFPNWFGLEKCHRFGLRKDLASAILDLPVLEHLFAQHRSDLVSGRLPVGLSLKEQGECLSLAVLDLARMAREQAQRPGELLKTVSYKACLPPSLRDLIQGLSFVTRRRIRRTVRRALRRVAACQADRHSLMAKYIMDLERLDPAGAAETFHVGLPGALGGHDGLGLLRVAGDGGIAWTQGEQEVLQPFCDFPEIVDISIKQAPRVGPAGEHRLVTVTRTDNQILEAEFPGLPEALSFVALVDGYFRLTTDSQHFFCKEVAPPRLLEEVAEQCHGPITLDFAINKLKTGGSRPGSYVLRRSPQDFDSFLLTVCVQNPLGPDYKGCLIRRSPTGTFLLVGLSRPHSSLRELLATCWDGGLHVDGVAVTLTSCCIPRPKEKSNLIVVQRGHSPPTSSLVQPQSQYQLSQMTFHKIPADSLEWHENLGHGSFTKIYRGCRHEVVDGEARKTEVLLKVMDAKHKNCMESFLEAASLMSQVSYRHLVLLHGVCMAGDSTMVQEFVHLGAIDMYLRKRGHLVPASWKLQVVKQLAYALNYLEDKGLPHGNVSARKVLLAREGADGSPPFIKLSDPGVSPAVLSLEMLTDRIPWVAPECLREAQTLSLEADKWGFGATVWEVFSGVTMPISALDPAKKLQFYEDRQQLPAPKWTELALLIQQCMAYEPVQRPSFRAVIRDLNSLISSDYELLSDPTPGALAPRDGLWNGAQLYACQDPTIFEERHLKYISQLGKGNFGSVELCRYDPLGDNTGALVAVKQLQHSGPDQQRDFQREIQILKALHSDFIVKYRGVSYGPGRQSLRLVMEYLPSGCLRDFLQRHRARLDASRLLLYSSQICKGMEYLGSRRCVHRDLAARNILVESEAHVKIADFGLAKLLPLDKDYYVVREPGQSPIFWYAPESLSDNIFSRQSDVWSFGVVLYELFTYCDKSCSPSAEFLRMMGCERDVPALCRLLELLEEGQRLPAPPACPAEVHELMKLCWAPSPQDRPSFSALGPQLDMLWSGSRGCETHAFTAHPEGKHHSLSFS

NCI-H1975 [8] = experiment: Antiproliferative activity against human NCI-H1975 cells assessed as cell growth inhibition incubated for 72 hrs by Cell-TiterGlo assay; format: functional
[9] = molecular target: Signal transducer and activator of transcription 3 (Homo sapiens) (UniProt P40763); experiment: Inhibition of STAT3 phosphorylation in human NCI-H1975 cells incubated for 1 hr by Western blot analysis; format: cell-based; conditions: dose 1-10 µM
Chain of Signal transducer and activator of transcription 3 (Homo sapiens) (P40763 whole entry): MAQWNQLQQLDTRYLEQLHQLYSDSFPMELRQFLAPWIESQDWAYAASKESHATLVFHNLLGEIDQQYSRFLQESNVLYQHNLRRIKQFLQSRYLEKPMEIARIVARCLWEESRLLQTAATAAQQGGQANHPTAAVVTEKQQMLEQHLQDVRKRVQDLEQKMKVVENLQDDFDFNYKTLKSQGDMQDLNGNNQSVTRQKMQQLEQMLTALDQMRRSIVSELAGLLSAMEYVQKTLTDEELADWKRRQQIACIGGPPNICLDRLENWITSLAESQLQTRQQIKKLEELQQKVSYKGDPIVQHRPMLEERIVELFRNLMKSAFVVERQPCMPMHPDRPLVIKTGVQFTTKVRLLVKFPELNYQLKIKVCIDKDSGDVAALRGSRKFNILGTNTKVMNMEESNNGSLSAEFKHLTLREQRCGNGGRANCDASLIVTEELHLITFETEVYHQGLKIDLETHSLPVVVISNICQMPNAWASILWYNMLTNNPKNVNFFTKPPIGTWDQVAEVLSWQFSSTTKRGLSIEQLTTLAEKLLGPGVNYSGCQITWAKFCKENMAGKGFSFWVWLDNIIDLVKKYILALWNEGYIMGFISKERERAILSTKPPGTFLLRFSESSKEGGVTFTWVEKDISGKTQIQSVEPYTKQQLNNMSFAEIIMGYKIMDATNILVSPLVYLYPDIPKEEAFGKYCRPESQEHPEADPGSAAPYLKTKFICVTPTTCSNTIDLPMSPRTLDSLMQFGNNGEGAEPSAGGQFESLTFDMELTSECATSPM

HCT-116 = experiment: Antiproliferative activity against human HCT-116 cells overexpressing JAK1 assessed as suppression of cell growth incubated for 72 hrs by Cell-TiterGlo assay; format: functional, cell-based
NCI-H1975 [10] = experiment: Synergistic antiproliferative activity against human NCI-H1975 cells assessed as cell growth inhibition measured after 48 hrs in presence of osimertinib by celltiterglo analysis; format: functional, cell-based
BaF3 = experiment: Antiproliferative activity against mouse parental BaF3 cells assessed as cell growth inhibition incubated for 72 hrs by Cell-TiterGlo assay; format: functional
U2OS = experiment: Antiproliferative activity against human U2OS cells overexpressing JAK1 assessed as suppression of cell growth incubated for 72 hrs by Cell-TiterGlo assay; format: functional, cell-based
HT-29 = experiment: Antiproliferative activity against human HT-29 cells overexpressing JAK1 assessed as suppression of cell growth incubated for 72 hrs by Cell-TiterGlo assay; format: functional, cell-based
[11] = molecular target: Signal transducer and activator of transcription 3 (Homo sapiens) (UniProt P40763); experiment: Inhibition of STAT3 phosphorylation in human NCI-H2087 cells incubated for 1 hr by Western blot analysis; format: cell-based; conditions: dose 1-10 µM
[12] = molecular target: T2, Tyrosine-protein kinase JAK2 (Homo sapiens, UniProt O60674); experiment: Inhibition of N-terminal GST-tagged human recombinant JAK2 (804 to end residues) extracted from baculovirus infected in Sf9 cells using IGF1Rtide as substrate preincubated for 15 min followed by substrate addition and measured after 1 hr by ADP-Glo kinase assay
T2 sequence (O60674 whole entry): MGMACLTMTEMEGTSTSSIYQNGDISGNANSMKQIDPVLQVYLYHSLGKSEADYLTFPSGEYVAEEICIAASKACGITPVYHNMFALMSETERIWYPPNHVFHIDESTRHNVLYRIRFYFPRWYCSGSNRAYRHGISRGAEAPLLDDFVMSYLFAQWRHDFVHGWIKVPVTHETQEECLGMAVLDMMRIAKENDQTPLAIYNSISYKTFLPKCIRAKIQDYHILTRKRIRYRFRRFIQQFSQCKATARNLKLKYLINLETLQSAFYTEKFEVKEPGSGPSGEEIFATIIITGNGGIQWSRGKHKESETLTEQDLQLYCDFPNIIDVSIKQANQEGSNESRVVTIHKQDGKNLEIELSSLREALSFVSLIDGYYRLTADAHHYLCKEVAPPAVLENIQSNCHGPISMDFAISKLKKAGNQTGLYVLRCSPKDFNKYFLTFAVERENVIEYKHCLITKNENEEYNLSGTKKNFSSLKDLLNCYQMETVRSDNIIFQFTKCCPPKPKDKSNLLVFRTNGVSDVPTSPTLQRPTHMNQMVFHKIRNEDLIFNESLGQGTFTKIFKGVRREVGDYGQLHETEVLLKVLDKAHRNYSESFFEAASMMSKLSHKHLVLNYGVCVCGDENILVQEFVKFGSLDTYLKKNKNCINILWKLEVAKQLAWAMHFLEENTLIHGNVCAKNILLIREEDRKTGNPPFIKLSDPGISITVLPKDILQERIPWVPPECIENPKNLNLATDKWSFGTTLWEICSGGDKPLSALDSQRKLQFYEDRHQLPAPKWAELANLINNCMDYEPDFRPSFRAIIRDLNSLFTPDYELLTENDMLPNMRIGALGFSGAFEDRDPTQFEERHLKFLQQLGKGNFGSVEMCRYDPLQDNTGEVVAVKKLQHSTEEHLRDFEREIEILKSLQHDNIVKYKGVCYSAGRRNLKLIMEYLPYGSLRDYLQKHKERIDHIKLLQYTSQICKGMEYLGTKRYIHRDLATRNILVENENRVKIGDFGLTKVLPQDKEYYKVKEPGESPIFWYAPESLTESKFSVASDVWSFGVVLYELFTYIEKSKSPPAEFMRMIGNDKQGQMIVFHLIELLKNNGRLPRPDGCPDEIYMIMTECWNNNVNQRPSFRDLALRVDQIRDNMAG

[13] = molecular target: T3, Aurora kinase C (Homo sapiens) (UniProt Q9UQB9); experiment: Inhibition of human Aurora C at 0.1 uM preincubated for 20 min followed by 33P-ATP addition measured after 2 hrs by P81 filter-binding method relative to control; conditions: time 140.0 min
T3 sequence (whole entry): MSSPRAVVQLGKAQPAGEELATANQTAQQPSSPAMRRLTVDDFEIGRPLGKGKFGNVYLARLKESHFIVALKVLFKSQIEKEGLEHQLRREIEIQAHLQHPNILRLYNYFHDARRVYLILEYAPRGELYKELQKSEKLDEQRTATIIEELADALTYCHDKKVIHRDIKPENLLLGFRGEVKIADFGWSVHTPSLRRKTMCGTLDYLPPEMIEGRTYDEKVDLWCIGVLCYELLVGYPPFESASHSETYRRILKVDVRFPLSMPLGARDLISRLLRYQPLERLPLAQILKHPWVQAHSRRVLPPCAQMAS

NCI-H1975 [14] = experiment: Antiproliferative activity against human NCI-H1975 cells overexpressing JAK1 assessed as suppression of cell growth incubated for 72 hrs by Cell-TiterGlo assay; format: functional, cell-based
[15] = molecular target: Non-receptor tyrosine-protein kinase TYK2 (Homo sapiens) (UniProt P29597); experiment: Inhibition of human TYK2 at 0.1 uM preincubated for 20 min followed by 33P-ATP addition measured after 2 hrs by P81 filter-binding method relative to control; conditions: time 140.0 min
[16] = Antiproliferative activity against mouse Ba/F3-TEL-JAK1 cells assessed as cell growth inhibition incubated for 72 hrs by Cell-TiterGlo assay; format: functional
[17] = molecular target: T2, Tyrosine-protein kinase JAK2; experiment: Inhibition of human JAK2 at 0.1 uM preincubated for 20 min followed by 33P-ATP addition measured after 2 hrs by P81 filter-binding method relative to control; conditions: time 140.0 min
NCI-H2087 [18] = experiment: Inhibition of colony formation in human NCI-H2087 cells at 10 uM incubated for 14 days by crystal violet staining based 2D colony formation assay relative to control; format: functional; conditions: NCI-H2087, 336 h, time 14 day
NCI-H2087 [19] = experiment: Induction of apoptosis in human NCI-H2087 cells at 1 to 10 uM incubated for 24 hrs by Annexin V/Propidium iodide staining based analysis; format: functional, cell-based; conditions: dose 1-10 µM
[20] = molecular target: T4, Tyrosine-protein kinase JAK3 (Homo sapiens) (UniProt P52333); experiment: Inhibition of human JAK3 at 0.1 uM preincubated for 20 min followed by 33P-ATP addition measured after 2 hrs by P81 filter-binding method relative to control; conditions: time 140.0 min
T4 sequence (whole entry): T1 sequence (P52333 whole entry)

NCI-H1975 [21] = experiment: Induction of apoptosis in human NCI-H1975 cells at 1 to 10 uM incubated for 24 hrs by Annexin V/Propidium iodide staining based analysis; format: functional, cell-based; conditions: dose 1-10 µM
UMUC3 = experiment: Antiproliferative activity against human UMUC3 cells overexpressing JAK1 assessed as suppression of cell growth incubated for 72 hrs by Cell-TiterGlo assay; format: functional, cell-based
NCI-H1975 [22] = experiment: Induction of cell cycle arrest in human NCI-H1975 cells assessed as accumulation of cells at G2/M phase at 1 to 10 uM incubated for 24 hrs by propidium iodide/RNase staining based analysis; format: functional; conditions: dose 1-10 µM
NCI-H2087 [23] = experiment: Antiproliferative activity against human NCI-H2087 cells overexpressing JAK1 assessed as suppression of cell growth incubated for 72 hrs by Cell-TiterGlo assay; format: functional, cell-based
NCI-H1975 [24] = experiment: Inhibition of colony formation in human NCI-H1975 cells at 10 uM incubated for 14 days by crystal violet staining based 2D colony formation assay; format: functional, cell-based; conditions: time 14.0 day
NCI-H2087 [25] = experiment: Inhibition of colony formation in human NCI-H2087 cells at 10 uM incubated for 14 days by crystal violet staining based 2D colony formation assay; format: functional, cell-based; conditions: time 14.0 day
[26] = molecular target: Tyrosine-protein kinase JAK1 (Homo sapiens, UniProt P23458); experiment: Inhibition of N-terminal GST-tagged human recombinant JAK1 (438 to end residues) extracted from baculovirus infected in Sf9 cells using KKHTDDGYMPMSPGVA as substrate preincubated for 15 min followed by substrate addition and measured after 1 hr by ADP-Glo kinase assay
Chain of Tyrosine-protein kinase JAK1 (P23458 whole entry): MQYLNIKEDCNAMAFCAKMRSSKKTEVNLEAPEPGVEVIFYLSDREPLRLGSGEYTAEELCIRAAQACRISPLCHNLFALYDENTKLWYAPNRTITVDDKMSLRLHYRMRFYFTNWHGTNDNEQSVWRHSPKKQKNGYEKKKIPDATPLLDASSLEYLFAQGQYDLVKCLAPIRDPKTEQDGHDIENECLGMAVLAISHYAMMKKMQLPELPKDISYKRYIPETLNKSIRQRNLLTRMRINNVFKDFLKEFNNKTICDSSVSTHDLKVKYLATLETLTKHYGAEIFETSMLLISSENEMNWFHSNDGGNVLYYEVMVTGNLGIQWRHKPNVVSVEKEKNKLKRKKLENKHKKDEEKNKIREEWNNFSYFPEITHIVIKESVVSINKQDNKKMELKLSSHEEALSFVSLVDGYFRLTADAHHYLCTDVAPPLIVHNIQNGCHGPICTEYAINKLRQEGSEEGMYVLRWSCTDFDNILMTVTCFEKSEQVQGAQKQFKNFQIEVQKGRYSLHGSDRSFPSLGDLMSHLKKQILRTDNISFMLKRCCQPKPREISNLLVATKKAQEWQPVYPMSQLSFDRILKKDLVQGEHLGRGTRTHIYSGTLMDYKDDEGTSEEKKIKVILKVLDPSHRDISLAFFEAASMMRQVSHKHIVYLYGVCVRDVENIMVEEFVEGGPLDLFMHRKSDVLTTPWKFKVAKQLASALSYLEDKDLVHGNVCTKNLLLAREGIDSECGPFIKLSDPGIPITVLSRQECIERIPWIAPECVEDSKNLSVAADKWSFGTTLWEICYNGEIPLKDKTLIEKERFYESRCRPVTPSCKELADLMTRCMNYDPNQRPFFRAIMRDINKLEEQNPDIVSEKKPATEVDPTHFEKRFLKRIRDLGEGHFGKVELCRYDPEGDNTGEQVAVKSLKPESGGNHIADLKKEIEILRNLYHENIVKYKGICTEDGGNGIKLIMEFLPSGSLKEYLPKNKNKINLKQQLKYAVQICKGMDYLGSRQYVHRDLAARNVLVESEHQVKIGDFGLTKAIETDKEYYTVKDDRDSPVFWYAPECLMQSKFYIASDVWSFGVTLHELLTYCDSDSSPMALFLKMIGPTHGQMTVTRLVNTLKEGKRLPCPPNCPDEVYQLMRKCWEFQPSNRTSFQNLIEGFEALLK

Compound | Activity (NCI-H1975 [1]) | Activity (NCI-H2087 [2]) | Activity (NCI-H2087 [3]) | inhibition at 10 µM (NCI-H1975 [4]) | GI50 (NCI-H2087 [6]) | pIC50 [7] | GI50 (NCI-H1975 [8]) | inhibition [9] | Activity (HCT-116) | Activity (NCI-H1975 [10]) | GI50 (BaF3) | Activity (U2OS) | Activity (HT-29) | inhibition [11] | pIC50 [12] | Activity (NCI-H1975 [14]) | GI50 [16] | Activity (NCI-H2087 [19]) | Activity (NCI-H1975 [21]) | Activity (NCI-H1975 [22]) | further results
COc1nn(C)cc1Nc1ncc2scc(-c3cccc(NC(=O)[C@@H](C)N4CCN(C)CC4)c3)c2n1 | Active | Active | Active | 100% | 6.81 µM | 5.40 | 2.46 µM | Dose-dependent-effect | Active | Active | 1.45 µM | Active | Active | Dose-dependent-effect | 5.45 | Active | 0.447 µM | Active | Active | Active | inhibition [5]: 82.5%; inhibition [13]: 83.7%; inhibition [15]: 18.1%; inhibition [17]: 61.8%; inhibition at 10 µM (NCI-H2087 [18]): 100%; inhibition [20]: 15.5%; Activity (UMUC3): Active; Activity (NCI-H2087 [23]): Active
COc1nn(C)cc1Nc1ncc2scc(-c3cccc(NC(=O)[C@@H](C)N4CCN(CCO)CC4)c3)c2n1 | – | – | Active | 100% | 5.96 µM | 5.80 | 6.67 µM | Dose-dependent-effect | – | Active | 0.614 µM | – | – | Dose-dependent-effect | 6.12 | – | 0.193 µM | Active | Active | Active | inhibition at 10 µM (NCI-H2087 [18]): 100%
Cc1nn(C)cc1Nc1ncc2scc(-c3cccc(NC(=O)[C@@H](C)N4CCN(C)CC4)c3)c2n1 | Active | Active | Active | – | 5.65 µM | 5.31 | 3.19 µM | Dose-dependent-effect | Active | Active | 2.91 µM | Active | Active | Dose-dependent-effect | 5.56 | Active | 0.45 µM | Active | Active | Active | inhibition (NCI-H1975 [24]): Active; inhibition (NCI-H2087 [25]): Active; Activity (UMUC3): Active; Activity (NCI-H2087 [23]): Active
COc1nn(C)cc1Nc1nccc(-c2c[nH]c3c(NC(=O)[C@@H](C)N4CCN(C)CC4)cccc23)n1 [GOLIDOCITINIB] | – | – | Active | – | 40.2 µM | 5.72 | 36.7 µM | – | – | Active | 3.67 µM | – | – | – | 6.21 | – | 0.514 µM | Active | Active | Active | inhibition (NCI-H1975 [24]): Active; inhibition (NCI-H2087 [25]): Active; pIC50 [26]: 7.09
